# Laboratory results from US20080161232A1, “C5a Receptor Antagonist” (JERINI AG, priority 2005, published 2008).
# Starred links: 1 amine or outer side, 2 acyl side, 3 side chain; linkers in the order of their positions; H or OH if unused. Positions of bridges follow the written chain, without caps; N, C: chain ends. Non-standard residues stand in square brackets, D forms with d. Residues, ends and D or L forms follow the SMILES beside them. *: point of attachment. Phe(4-guanidino) = N=C(N)Nc1ccc(C[C@H](N)C(=O)O)cc1; Phe(Nα-CONH2) = NC(=O)N[C@@H](Cc1ccccc1)C(=O)*; dβ3hPhg = O=C(C[C@H](N[*:1])c1ccccc1)[*:2]; Phe(4-NH2) = Nc1ccc(C[C@H](N)C(=O)O)cc1; X5 = CCN(CC)CCC[C@H](N[*:1])C(=O)[*:2]; Bta = N[C@@H](Cc1csc2ccccc12)C(=O)O; d(hCha) = N[C@H](CCC1CCCCC1)C(=O)O; Hydrocinnamoyl = O=C(CCc1ccccc1)*; Hyp = O=C(O)[C@@H]1C[C@@H](O)CN1; hArg = N=C(N)NCCCC[C@H](N)C(=O)O; 3Pal = N[C@@H](Cc1cccnc1)C(=O)O; dCha = N[C@H](CC1CCCCC1)C(=O)O; dChg = N[C@@H](C(=O)O)C1CCCCC1; Phg = N[C@H](C(=O)O)c1ccccc1; Nle = CCCC[C@H](N)C(=O)O; Orn = NCCC[C@H](N)C(=O)O; Aze = O=C(O)[C@@H]1CCN1; Dab = NCC[C@H](N)C(=O)O; Fluoroacetyl = O=C(CF)*; X13 = c1ccc2c(c1)nnn2C*; Piv = CC(C)(C)C(=O)*; Acm = CC(=O)NC*; Moc = COC(=O)*
# Target: T1, human C5aR(CD88) (Homo sapiens, UniProt P21730)
# T1 construct: expressed in transfected cells; host or cells: rat basophilic leukemia cells (RBL)
# T1 sequence (P21730 1-350): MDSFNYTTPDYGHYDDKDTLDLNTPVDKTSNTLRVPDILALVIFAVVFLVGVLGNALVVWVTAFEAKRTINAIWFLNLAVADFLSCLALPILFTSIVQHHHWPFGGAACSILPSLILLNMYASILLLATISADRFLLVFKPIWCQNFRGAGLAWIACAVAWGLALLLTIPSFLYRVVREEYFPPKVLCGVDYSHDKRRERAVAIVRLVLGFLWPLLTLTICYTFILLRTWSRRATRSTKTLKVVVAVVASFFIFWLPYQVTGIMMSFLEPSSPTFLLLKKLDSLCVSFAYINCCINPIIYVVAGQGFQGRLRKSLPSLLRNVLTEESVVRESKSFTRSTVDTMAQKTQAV
# Assay: Determination of the IC50 value in an enzyme release assay (functional assay, antagonistic activity)
# Type: cell-based
# Conditions: activity (group), antagonistic activity; IC50 group in enzyme release assay, RBL cells expressing human C5aR(CD88)
row,Structure (SMILES),IC50 [nM]
1,"NCCC[C@H](NC(=O)[C@H](Cc1ccccc1)NC(=O)CF)C(=O)N1CCC[C@H]1C(=O)N[C@H](CC1CCCCC1)C(=O)N[C@@H](Cc1csc2ccccc12)C(=O)N[C@@H](Cc1ccccc1)C(N)=O [Compound 142, FH2C—CO-Phe-Orn-Pro-cha-Bta-Phe-NH2] (Fluoroacetyl-F[Orn]P[dCha][Bta]F-NH2)",20 to 50

# Same assay, conditions: antagonistic activity; IC50 group in enzyme release assay, RBL cells expressing human C5aR(CD88); read-out: activity (group)
row,Structure (SMILES),IC50 [nM]
1,"CC(=O)N[C@@H](Cc1ccccc1)C(=O)N[C@@H](CCCN)C(=O)N[C@@H](CO)C(=O)N[C@H](CC1CCCCC1)C(=O)N[C@@H](Cc1c[nH]c2ccccc12)C(=O)N[C@@H](Cc1ccccc1)C(=O)O [Compound 117, Ac-Phe-Orn-Ser-cha-Trp-Phe-OH] (Ac-F[Orn]S[dCha]WF-OH)",200 to 2000
2,"CC(=O)N[C@@H](Cc1ccccc1)C(=O)N[C@@H](CCCN)C(=O)N1CCC[C@H]1C(=O)N[C@@H](C(=O)N[C@@H](Cc1c[nH]c2ccccc12)C(=O)N[C@@H](Cc1ccccc1)C(=O)O)C1CCCCC1 [Compound 118, Ac-Phe-Orn-Pro-chg-Trp-Phe-OH] (Ac-F[Orn]P[dChg]WF-OH)",200 to 2000
3,"CC(=O)N[C@@H](Cc1ccccc1)C(=O)N[C@@H](CSCn1nnc2ccccc21)C(=O)N1CCC[C@H]1C(=O)N[C@H](CC1CCCCC1)C(=O)N[C@@H](Cc1csc2ccccc12)C(=O)N[C@@H](Cc1ccccc1)C(N)=O [Compound 119, Ac-Phe-Eec-Pro-cha-Bta-Phe-NH2] (Ac-FC(X13)P[dCha][Bta]F-NH2)",50 to 200
4,"CCCC[C@H](NC(=O)[C@H](Cc1ccccc1)NC(C)=O)C(=O)N1CCC[C@H]1C(=O)N[C@H](CC1CCCCC1)C(=O)N[C@@H](Cc1csc2ccccc12)C(=O)N[C@@H](Cc1ccccc1)C(N)=O [Compound 120, Ac-Phe-Nle-Pro-cha-Bta-Phe-NH2] (Ac-F[Nle]P[dCha][Bta]F-NH2)",50 to 200
5,"CC(=O)N[C@@H](Cc1ccccc1)C(=O)N[C@@H](CCCCNC(=N)N)C(=O)N1CCC[C@H]1C(=O)N[C@H](CC1CCCCC1)C(=O)N[C@@H](Cc1csc2ccccc12)C(=O)N[C@@H](Cc1ccccc1)C(N)=O [Compound 121, Ac-Phe-Har-Pro-cha-Bta-Phe-NH2] (Ac-F[hArg]P[dCha][Bta]F-NH2)",20 to 50
6,"CC(=O)N[C@@H](Cc1ccccc1)C(=O)N[C@@H](CCCNC(=N)N)C(=O)N1CCC[C@H]1C(=O)N[C@H](CC1CCCCC1)C(=O)N[C@@H](Cc1csc2ccccc12)C(=O)N[C@@H](Cc1ccccc1)C(N)=O [Compound 122, Ac-Phe-Arg-Pro-cha-Bta-Phe-NH2] (Ac-FRP[dCha][Bta]F-NH2)",20 to 50
7,"CC(=O)NCSC[C@H](NC(=O)[C@H](Cc1ccccc1)NC(C)=O)C(=O)N1CCC[C@H]1C(=O)N[C@H](CC1CCCCC1)C(=O)N[C@@H](Cc1csc2ccccc12)C(=O)N[C@@H](Cc1ccccc1)C(N)=O [Compound 123, Ac-Phe-Cys(Acm)-Pro-cha-Bta-Phe-NH2] (Ac-FC(Acm)P[dCha][Bta]F-NH2)",200 to 2000
8,"CC(=O)N[C@@H](Cc1ccccc1)C(=O)N[C@@H](Cc1cccnc1)C(=O)N1CCC[C@H]1C(=O)N[C@H](CC1CCCCC1)C(=O)N[C@@H](Cc1csc2ccccc12)C(=O)N[C@@H](Cc1ccccc1)C(N)=O [Compound 124, Ac-Phe-Mpa-Pro-cha-Bta-Phe-NH2] (Ac-F[3Pal]P[dCha][Bta]F-NH2)",50 to 200
9,"CC(=O)N[C@@H](CC(=O)N[C@@H](CCCN)C(=O)N1CCC[C@H]1C(=O)N[C@H](CC1CCCCC1)C(=O)N[C@@H](Cc1csc2ccccc12)C(=O)N[C@@H](Cc1ccccc1)C(N)=O)c1ccccc1 [Compound 125, Ac-Eby-Orn-Pro-cha-Bta-Phe-NH2] (Ac-[dβ3hPhg][Orn]P[dCha][Bta]F-NH2)",20 to 50
10,"CC(=O)N[C@H](C(=O)N[C@@H](CCCN)C(=O)N1CCC[C@H]1C(=O)N[C@H](CC1CCCCC1)C(=O)N[C@@H](Cc1csc2ccccc12)C(=O)N[C@@H](Cc1ccccc1)C(N)=O)c1ccccc1 [Compound 126, Ac-Phg-Orn-Pro-cha-Bta-Phe-NH2] (Ac-[Phg][Orn]P[dCha][Bta]F-NH2)",50 to 200
11,"CC(=O)N[C@@H](Cc1ccccc1)C(=O)N[C@@H](Cc1ccc(N)cc1)C(=O)N1CCC[C@H]1C(=O)N[C@H](CC1CCCCC1)C(=O)N[C@@H](Cc1csc2ccccc12)C(=O)N[C@@H](Cc1ccccc1)C(N)=O [Compound 127, Ac-Phe-Paf-Pro-cha-Bta-Phe-NH2] (Ac-F[Phe(4-NH2)]P[dCha][Bta]F-NH2)",200 to 2000
12,"NCCC[C@H](NC(=O)[C@H](Cc1ccccc1)NC(N)=O)C(=O)N1CCC[C@H]1C(=O)N[C@H](CC1CCCCC1)C(=O)N[C@@H](Cc1csc2ccccc12)C(=O)N[C@@H](Cc1ccccc1)C(N)=O [Compound 128, H2N—CO-Phe-Orn-Pro-cha-Bta-Phe-NH2] ({Phe(Nα-CONH2)}-[Orn]P[dCha][Bta]F-NH2)",20 to 50
13,"COC(=O)N[C@@H](Cc1ccccc1)C(=O)N[C@@H](CCCN)C(=O)N1CCC[C@H]1C(=O)N[C@H](CC1CCCCC1)C(=O)N[C@@H](Cc1csc2ccccc12)C(=O)N[C@@H](Cc1ccccc1)C(N)=O [Compound 129, Me-O—CO-Phe-Orn-Pro-cha-Bta-Phe-NH2] (Moc-F[Orn]P[dCha][Bta]F-NH2)",50 to 200
14,"CC(=O)N[C@@H](Cc1ccccc1)C(=O)N[C@@H](CCCN)C(=O)N1CCC[C@H]1C(=O)N[C@H](CCC1CCCCC1)C(=O)N[C@@H](Cc1c[nH]c2ccccc12)C(=O)N[C@@H](Cc1ccccc1)C(=O)O [Compound 132, Ac-Phe-Orn-Pro-hch-Trp-Phe-OH] (Ac-F[Orn]P[d(hCha)]WF-OH)",50 to 200
15,"CC(C)(C)C(=O)N[C@@H](Cc1ccccc1)C(=O)N[C@@H](CCCN)C(=O)N1CCC[C@H]1C(=O)N[C@H](CC1CCCCC1)C(=O)N[C@@H](Cc1csc2ccccc12)C(=O)N[C@@H](Cc1ccccc1)C(N)=O [Compound 134, ^tBu-CO-Phe-Orn-Pro-cha-Bta-Phe-NH2] (Piv-F[Orn]P[dCha][Bta]F-NH2)",50 to 200
16,"CC(=O)N[C@@H](CCCCN)C(=O)N[C@@H](Cc1ccccc1)C(=O)N[C@@H](CCCN)C(=O)N1CC[C@H]1C(=O)N[C@H](CC1CCCCC1)C(=O)N[C@@H](Cc1csc2ccccc12)C(=O)N[C@@H](Cc1ccccc1)C(N)=O [Compound 135, Ac-Lys-Phe-Orn-Aze-cha-Bta-Phe-NH2] (Ac-KF[Orn][Aze][dCha][Bta]F-NH2)",10 to 20
17,"CC(=O)NCC(=O)N[C@@H](Cc1ccccc1)C(=O)N[C@@H](CCCN)C(=O)N1CC[C@H]1C(=O)N[C@H](CC1CCCCC1)C(=O)N[C@@H](Cc1csc2ccccc12)C(=O)N[C@@H](Cc1ccccc1)C(N)=O [Compound 136, Ac-Gly-Phe-Orn-Aze-cha-Bta-Phe-NH2] (Ac-GF[Orn][Aze][dCha][Bta]F-NH2)",20 to 50
18,"CC(=O)N[C@@H](CCCNC(=N)N)C(=O)N[C@@H](Cc1ccccc1)C(=O)N[C@@H](CCCN)C(=O)N1CC[C@H]1C(=O)N[C@H](CC1CCCCC1)C(=O)N[C@@H](Cc1csc2ccccc12)C(=O)N[C@@H](Cc1ccccc1)C(N)=O [Compound 137, Ac-Arg-Phe-Orn-Aze-cha-Bta-Phe-NH2] (Ac-RF[Orn][Aze][dCha][Bta]F-NH2)",20 to 50
19,"CC(=O)N[C@@H](Cc1c[nH]cn1)C(=O)N[C@@H](Cc1ccccc1)C(=O)N[C@@H](CCCN)C(=O)N1CC[C@H]1C(=O)N[C@H](CC1CCCCC1)C(=O)N[C@@H](Cc1csc2ccccc12)C(=O)N[C@@H](Cc1ccccc1)C(N)=O [Compound 138, Ac-His-Phe-Orn-Aze-cha-Bta-Phe-NH2] (Ac-HF[Orn][Aze][dCha][Bta]F-NH2)",50 to 200
20,"CC(=O)N[C@@H](CO)C(=O)N[C@@H](Cc1ccccc1)C(=O)N[C@@H](CCCN)C(=O)N1CC[C@H]1C(=O)N[C@H](CC1CCCCC1)C(=O)N[C@@H](Cc1csc2ccccc12)C(=O)N[C@@H](Cc1ccccc1)C(N)=O [Compound 139, Ac-Ser-Phe-Orn-Aze-cha-Bta-Phe-NH2] (Ac-SF[Orn][Aze][dCha][Bta]F-NH2)",50 to 200
21,"CC(=O)N[C@@H](Cc1ccc(NC(=N)N)cc1)C(=O)N[C@@H](Cc1ccccc1)C(=O)N[C@@H](CCCN)C(=O)N1CC[C@H]1C(=O)N[C@H](CC1CCCCC1)C(=O)N[C@@H](Cc1csc2ccccc12)C(=O)N[C@@H](Cc1ccccc1)C(N)=O [Compound 140, Ac-Guf-Phe-Orn-Aze-cha-Bta-Phe-NH2] (Ac-[Phe(4-guanidino)]F[Orn][Aze][dCha][Bta]F-NH2)",50 to 200
22,"CC(=O)N[C@@H](CCN)C(=O)N[C@@H](Cc1ccccc1)C(=O)N[C@@H](CCCN)C(=O)N1CC[C@H]1C(=O)N[C@H](CC1CCCCC1)C(=O)N[C@@H](Cc1csc2ccccc12)C(=O)N[C@@H](Cc1ccccc1)C(N)=O [Compound 141, Ac-Dab-Phe-Orn-Aze-cha-Bta-Phe-NH2] (Ac-[Dab]F[Orn][Aze][dCha][Bta]F-NH2)",50 to 200
23,"CCN(CC)CCC[C@H](NC(=O)[C@H](Cc1ccccc1)NC(C)=O)C(=O)N1CCC[C@H]1C(=O)N[C@H](CC1CCCCC1)C(=O)N[C@@H](Cc1c[nH]c2ccccc12)C(=O)N[C@@H](Cc1ccccc1)C(N)=O [Compound 143, Ac-Phe-Orn(Et2)-Pro-cha-Trp-Phe-NH2] (Ac-F[X5]P[dCha]WF-NH2)",50 to 200
24,"CCCC[C@@H]1NC(=O)[C@H](Cc2c[nH]c3ccccc23)NC(=O)[C@@H](CC2CCCCC2)NC(=O)[C@@H]2C[C@@H](O)CN2C(=O)[C@@H](NC(=O)[C@H](Cc2ccccc2)NC(C)=O)CCCNC1=O [Compound 144, Ac-Phe-[Orn-Hyp-cha-Trp-Nle]] (Ac-F[Orn][Hyp][dCha]W[Nle]; lactam 2-C)",10 to 20
25,"CCCC[C@@H]1NC(=O)[C@H](Cc2c[nH]c3ccccc23)NC(=O)[C@@H](CC2CCCCC2)NC(=O)[C@@H]2C[C@@H](O)CN2C(=O)[C@@H](NC(=O)CCc2ccccc2)CCCNC1=O [Compound 145, 3PP-[Orn-Hyp-cha-Trp-Nle]] (Hydrocinnamoyl-[Orn][Hyp][dCha]W[Nle]; lactam 1-C)",20 to 50
